Source: patent publication US20210113501A1, “METHOD OF ADMINISTERING BETA-HYDROXY-BETA-METHYLBUTYRATE (HMB)” (Metabolic Technologies, Inc., priority 2009, published 2021)

Experiments:
Study 2 blood chemistry = assay type: in vivo, human; details: for Aspartate Aminotransferase / Gamma-glutamyl: in U/L (unit assumed)
Method: (§1) Study 2 design. Study 2 was conducted similar to study 1 with the following modifications. In study 2, plasma levels of HMB were measured for 1440 min (24 h) and total urine collection was also performed for measurement of urinary HMB excretion during this period. After the 180 min blood sample, the subjects were allowed to leave the laboratory and were instructed to return to the laboratory for additional blood samples at 360, 720, and 1440 min after the ingestion of the supplement. As in study 1, each subject took each of the treatments with at least a one week washout period between treatments. Samples were again stored frozen at −70° C. for analysis of plasma and urinary HMB concentrations. Pre-ingestion, 180 min and 1440 min blood samples were again assayed for the same measurements already for study 1. Subjects were provided with a standardized lunch after the 180 min blood sampling and instructed to eat this at approximately 240 min post ingestion. Following the 720 min blood sample, subjects were instructed to eat a normal evening meal before 10 pm. Subjects reported back to the laboratory the following morning for the fasted 1440 min blood sample. A urine collection container was provided and subjects collected all urine produced during the experimental 24 h experimental period. The urine was stored refrigerated when not being collected. Urine volumes were measured and samples of the total urine collection were taken and stored frozen at −70° C. until analyzed for HMB.
(§2) The data were analyzed using a crossover design with Proc GLM in SAS. (45) For the timed sampling of plasma HMB a repeated measures polynomial model was used. The model included subject, order, and treatment main effects and time by treatment interaction where appropriate. For other parameters Proc GLM was also used with subject, order, and treatment main effects and the p values are reported for the treatment main effect. Statistical significance was determined for p<0.05 and a trend was determined for 0.05<p<0.10.

Study 2 hematology = assay type: in vivo, human
Method: as §1, §2

Compound: CC(C)(O)CC(=O)O [HMB-Acid Gel Swallow, 3-hydroxy-3-methylbutyric acid]
- A:G Ratio (Study 2 blood chemistry; After (24 h)): 1.8 ± 0.1
- Alanine Aminotransferase (Study 2 blood chemistry; After (24 h)): 16.4 ± 1.7 IU/L
- Albumin (Study 2 blood chemistry; After (24 h)): 4.3 ± 0.1 g/dL
- Alkaline Phosphatase (Study 2 blood chemistry; After (24 h)): 74.1 ± 7.6 IU/L
- Blood Urea Nitrogen (Study 2 blood chemistry; After (24 h)): 13.9 ± 1.4 mg/dL
- CO2 (Study 2 blood chemistry; After (24 h)): 27.8 ± 0.9 mEq/L
- Chloride (Study 2 blood chemistry; After (24 h)): 102.8 ± 0.7 mEq/L
- Cholesterol Ratio (Study 2 blood chemistry; After (24 h)): 3.2 ± 0.2
- Creatinine (Study 2 blood chemistry; After (24 h)): 1.0 ± 0.1 mg/dL
- Direct Bilirubin (Study 2 blood chemistry; After (24 h)): 0.1 ± 0.04 mg/dL
- Globulin (Study 2 blood chemistry; After (24 h)): 2.4 ± 0.2 g/dL
- Glucose (Study 2 blood chemistry; After (24 h)): 79.9 ± 1.9 mg/dL
- HDL (Study 2 blood chemistry; After (24 h)): 56.4 ± 2.9 mg/dL
- Iron (Study 2 blood chemistry; After (24 h)): 53.8 ± 10.8 µg/dL
- Iron Binding Capacity (Study 2 blood chemistry; After (24 h)): 395.1 ± 34.7 µg/dL
- Iron Saturation (Study 2 blood chemistry; After (24 h)): 16.9 ± 4.6%
- LDL (Study 2 blood chemistry; After (24 h)): 96.1 ± 8.1 mg/dL
- Lactate Dehydrogenase (Study 2 blood chemistry; After (24 h)): 136.6 ± 11.6 IU/L
- Phosphorus (Study 2 blood chemistry; After (24 h)): 4.5 ± 0.2 mg/dL
- Potassium (Study 2 blood chemistry; After (24 h)): 4.7 ± 0.2 mEq/L
- Protein (Study 2 blood chemistry; After (24 h)): 6.7 ± 0.2 g/dL
- Sodium (Study 2 blood chemistry; After (24 h)): 141.5 ± 0.9 mEq/L
- Total Bilirubin (Study 2 blood chemistry; After (24 h)): 0.5 ± 0.1 mg/dL
- Total Cholesterol (Study 2 blood chemistry; After (24 h)): 176.9 ± 11.8 mg/dL
- Triglycerides (Study 2 blood chemistry; After (24 h)): 121.4 ± 22.7 mg/dL
- UIBC (Study 2 blood chemistry; After (24 h)): 335.1 ± 42.1 µg/dL
- Uric Acid (Study 2 blood chemistry; After (24 h)): 4.8 ± 0.3 mg/dL
- Aspartate Aminotransferase (Study 2 blood chemistry; After (24 h)): 21.3 ± 0.7
- Gamma-glutamyl (Study 2 blood chemistry; After (24 h)): 14.0 ± 1.0
- A:G Ratio (Study 2 blood chemistry; Before): 1.9 ± 0.2
- Alanine Aminotransferase (Study 2 blood chemistry; Before): 16.4 ± 1.6 IU/L
- Albumin (Study 2 blood chemistry; Before): 4.1 ± 0.1 g/dL
- Alkaline Phosphatase (Study 2 blood chemistry; Before): 64.8 ± 7.3 IU/L
- Blood Urea Nitrogen (Study 2 blood chemistry; Before): 14.5 ± 1.4 mg/dL
- CO2 (Study 2 blood chemistry; Before): 24.8 ± 1.0 mEq/L
- Chloride (Study 2 blood chemistry; Before): 103.1 ± 0.8 mEq/L
- Cholesterol Ratio (Study 2 blood chemistry; Before): 3.2 ± 0.2
- Creatinine (Study 2 blood chemistry; Before): 1.0 ± 0.1 mg/dL
- Direct Bilirubin (Study 2 blood chemistry; Before): 0.1 ± 0.03 mg/dL
- Globulin (Study 2 blood chemistry; Before): 2.3 ± 0.2 g/dL
- Glucose (Study 2 blood chemistry; Before): 74.1 ± 2.0 mg/dL
- HDL (Study 2 blood chemistry; Before): 51.4 ± 2.8 mg/dL
- Iron (Study 2 blood chemistry; Before): 68.0 ± 13.4 µg/dL
- Iron Binding Capacity (Study 2 blood chemistry; Before): 378.6 ± 32.1 µg/dL
- Iron Saturation (Study 2 blood chemistry; Before): 20.3 ± 5.0%
- LDL (Study 2 blood chemistry; Before): 90.8 ± 7.0 mg/dL
- Lactate Dehydrogenase (Study 2 blood chemistry; Before): 155.9 ± 13.9 IU/L
- Phosphorus (Study 2 blood chemistry; Before): 4.2 ± 0.2 mg/dL
- Potassium (Study 2 blood chemistry; Before): 4.1 ± 0.1 mEq/L
- Protein (Study 2 blood chemistry; Before): 6.4 ± 0.1 g/dL
- Sodium (Study 2 blood chemistry; Before): 139.9 ± 0.7 mEq/L
- Total Bilirubin (Study 2 blood chemistry; Before): 0.5 ± 0.1 mg/dL
- Total Cholesterol (Study 2 blood chemistry; Before): 164.6 ± 10.5 mg/dL
- Triglycerides (Study 2 blood chemistry; Before): 112.6 ± 18.4 mg/dL
- UIBC (Study 2 blood chemistry; Before): 310.6 ± 42.4 µg/dL
- Uric Acid (Study 2 blood chemistry; Before): 4.7 ± 0.1 mg/dL
- A:G Ratio % Change (Study 2 blood chemistry; Before to After): −2.6%
- Alanine Aminotransferase % Change (Study 2 blood chemistry; Before to After): 0.0%
- Albumin % Change (Study 2 blood chemistry; Before to After): 4.5%
- Alkaline Phosphatase % Change (Study 2 blood chemistry; Before to After): 14.5%
- Aspartate Aminotransferase % Change (Study 2 blood chemistry; Before to After): −8.6%
- Blood Urea Nitrogen % Change (Study 2 blood chemistry; Before to After): −4.3%
- CO2 % Change (Study 2 blood chemistry; Before to After): 12.1%
- Chloride % Change (Study 2 blood chemistry; Before to After): −0.4%
- Cholesterol Ratio % Change (Study 2 blood chemistry; Before to After): −2.3%
- Creatinine % Change (Study 2 blood chemistry; Before to After): −0.6%
- Direct Bilirubin % Change (Study 2 blood chemistry; Before to After): 6.0%
- Gamma-glutamyl % Change (Study 2 blood chemistry; Before to After): 5.7%
- Globulin % Change (Study 2 blood chemistry; Before to After): 6.0%
- Glucose % Change (Study 2 blood chemistry; Before to After): 7.8%
- HDL % Change (Study 2 blood chemistry; Before to After): 9.7%
- Iron % Change (Study 2 blood chemistry; Before to After): −21.0%
- Iron Binding Capacity % Change (Study 2 blood chemistry; Before to After): 4.4%
- Iron Saturation % Change (Study 2 blood chemistry; Before to After): −16.7%
- LDL % Change (Study 2 blood chemistry; Before to After): 5.9%
- Lactate Dehydrogenase % Change (Study 2 blood chemistry; Before to After): −12.3%
- Phosphorus % Change (Study 2 blood chemistry; Before to After): 6.2%
- Potassium % Change (Study 2 blood chemistry; Before to After): 14.0%
- Protein % Change (Study 2 blood chemistry; Before to After): 5.1%
- Sodium % Change (Study 2 blood chemistry; Before to After): 1.2%
- Total Bilirubin % Change (Study 2 blood chemistry; Before to After): 2.6%
- Total Cholesterol % Change (Study 2 blood chemistry; Before to After): 7.4%
- Triglycerides % Change (Study 2 blood chemistry; Before to After): 7.8%
- UIBC % Change (Study 2 blood chemistry; Before to After): 7.9%
- Uric Acid % Change (Study 2 blood chemistry; Before to After): 1.9%
- Aspartate Aminotransferase (Study 2 blood chemistry; Before): 23.3 ± 0.9
- Gamma-glutamyl (Study 2 blood chemistry; Before): 13.3 ± 1.2
- Basophils (absolute) (Study 2 hematology; After (24 h)): 0.09 ± 0.03 ×10^3/μL
- Basophils, % (Study 2 hematology; After (24 h)): 0.9 ± 0.3%
- Eosinophils (absolute) (Study 2 hematology; After (24 h)): 0.2 ± 0.04 ×10^3/μL
- Eosinophils, % (Study 2 hematology; After (24 h)): 3.0 ± 0.5%
- Hematocrit (Study 2 hematology; After (24 h)): 38.9 ± 1.1%
- Hemoglobin (Study 2 hematology; After (24 h)): 13.4 ± 0.4 g/dL
- Lymphocytes (absolute) (Study 2 hematology; After (24 h)): 3.1 ± 0.3 ×10^3/μL
- Lymphocytes, % (Study 2 hematology; After (24 h)): 43.3 ± 3.9%
- MCH (Study 2 hematology; After (24 h)): 30.5 ± 0.6 pg
- MCHC (Study 2 hematology; After (24 h)): 34.5 ± 0.2 g/dL
- MCV (Study 2 hematology; After (24 h)): 88.6 ± 1.5 fL
- Monocytes (absolute) (Study 2 hematology; After (24 h)): 0.5 ± 0.04 ×10^3/μL
- Monocytes, % (Study 2 hematology; After (24 h)): 6.9 ± 0.8%
- Neutrophils (absolute) (Study 2 hematology; After (24 h)): 3.3 ± 0.4 ×10^3/μL
- Neutrophils, % (Study 2 hematology; After (24 h)): 46.0 ± 4.4%
- Platelets (Study 2 hematology; After (24 h)): 242.4 ± 12.2 ×10^3/μL
- RBC (Study 2 hematology; After (24 h)): 4.4 ± 0.1 ×10^6/µL
- RDW (Study 2 hematology; After (24 h)): 13.2 ± 0.2%
- WBC (Study 2 hematology; After (24 h)): 7.1 ± 0.3 ×10^3/μL
- Basophils (absolute) (Study 2 hematology; Before): 0.05 ± 0.02 ×10^3/μL
- Basophils, % (Study 2 hematology; Before): 0.5 ± 0.2%
- Eosinophils (absolute) (Study 2 hematology; Before): 0.2 ± 0.03 ×10^3/μL
- Eosinophils, % (Study 2 hematology; Before): 2.8 ± 0.5%
- Hematocrit (Study 2 hematology; Before): 37.4 ± 1.0%
- Hemoglobin (Study 2 hematology; Before): 13.0 ± 0.4 g/dL
- Lymphocytes (absolute) (Study 2 hematology; Before): 2.8 ± 0.2 ×10^3/μL
- Lymphocytes, % (Study 2 hematology; Before): 43.6 ± 2.4%
- MCH (Study 2 hematology; Before): 30.6 ± 0.6 pg
- MCHC (Study 2 hematology; Before): 34.8 ± 0.2 g/dL
- MCV (Study 2 hematology; Before): 88.1 ± 1.5 fL
- Monocytes (absolute) (Study 2 hematology; Before): 0.5 ± 0.1 ×10^3/μL
- Monocytes, % (Study 2 hematology; Before): 7.5 ± 1.1%
- Neutrophils (absolute) (Study 2 hematology; Before): 2.9 ± 0.2 ×10^3/μL
- Neutrophils, % (Study 2 hematology; Before): 45.6 ± 2.7%
- Platelets (Study 2 hematology; Before): 229.0 ± 12.9 ×10^3/μL
- RBC (Study 2 hematology; Before): 4.2 ± 0.1 ×10^6/µL
- RDW (Study 2 hematology; Before): 13.3 ± 0.2%
- WBC (Study 2 hematology; Before): 6.4 ± 0.3 ×10^3/μL
- Basophils (absolute) % Change (Study 2 hematology; Before to After): 75.0%
- Basophils, % - % Change (Study 2 hematology; Before to After): 75.0%
- Eosinophils (absolute) % Change (Study 2 hematology; Before to After): 13.3%
- Eosinophils, % - % Change (Study 2 hematology; Before to After): 9.1%
- Hematocrit % Change (Study 2 hematology; Before to After): 4.2%
- Hemoglobin % Change (Study 2 hematology; Before to After): 3.2%
- Lymphocytes (absolute) % Change (Study 2 hematology; Before to After): 9.4%
- Lymphocytes, % - % Change (Study 2 hematology; Before to After): −0.9%
- MCH % Change (Study 2 hematology; Before to After): −0.3%
- MCHC % Change (Study 2 hematology; Before to After): −0.8%
- MCV % Change (Study 2 hematology; Before to After): 0.6%
- Monocytes (absolute) % Change (Study 2 hematology; Before to After): 2.6%
- Monocytes, % - % Change (Study 2 hematology; Before to After): −8.3%
- Neutrophils (absolute) % Change (Study 2 hematology; Before to After): 10.6%
- Neutrophils, % - % Change (Study 2 hematology; Before to After): 0.8%
- Platelets % Change (Study 2 hematology; Before to After): 5.8%
- RBC % Change (Study 2 hematology; Before to After): 3.5%
- RDW % Change (Study 2 hematology; Before to After): −0.5%
- WBC % Change (Study 2 hematology; Before to After): 9.7%
